Experimental data as given in the supplement of paper PMC10307832.

Legend:
Assay in all cases: relative viability (nuclei count vs DMSO), 5 days (fraction); higher = more cells survive
NCI-H441 = tested on: NCI-H441
Procedure, shortened: (§1)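 Relative viability equals treated-well nuclei counts divided by vehicle-well nuclei counts. Counts came from 4× images of lung cancer cell lines grown in 1536-well plates for 5 days after pin-tool dosing on the day after seeding. Dosing used one drug alone or a fixed anchor-drug dose plus five library-drug doses (not always all listed) in √10 steps, and values are medians of duplicate plates.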

NCI-H1975 = tested on: NCI-H1975
Procedure, shortened: as §1

HCC-15 = tested on: HCC-15
Procedure, shortened: as §1

SK-MES-1 = tested on: SK-MES-1
Procedure, shortened: as §1

NCI-H1792 = tested on: NCI-H1792
Procedure, shortened: as §1

A-427 = tested on: A-427
Procedure, shortened: as §1

HCC-44 = tested on: HCC-44
Procedure, shortened: as §1

NCI-H838 = tested on: NCI-H838
Procedure, shortened: as §1

NCI-H1650 = tested on: NCI-H1650
Procedure, shortened: as §1

EKVX = tested on: EKVX
Procedure, shortened: as §1

HCC-827 = tested on: HCC-827
Procedure, shortened: as §1

HARA = tested on: HARA
Procedure, shortened: as §1

COR-L23 = tested on: COR-L23
Procedure, shortened: as §1

201T = tested on: 201T
Procedure, shortened: as §1

NCI-H596 = tested on: NCI-H596
Procedure, shortened: as §1

NCI-H23 = tested on: NCI-H23
Procedure, shortened: as §1

NCI-H1437 = tested on: NCI-H1437
Procedure, shortened: as §1

BEN = tested on: BEN
Procedure, shortened: as §1

Which relative viability (NCI-H441; first compound 0.04 µM) does the source give for `Cc1sc2c(c1C)C(c1ccc(Cl)cc1)=N[C@@H](CC(=O)OC(C)(C)C)c1nnc(C)n1-2` [JQ1] + CC1(C)CCC(c2ccc(Cl)cc2)=C(CN2CCN(c3ccc(C(=O)NS(=O)(=O)c4ccc(N[C@H](CCN5CCOCC5)CSc5ccccc5)c(S(=O)(=O)C(F)(F)F)c4)cc3)CC2)C1 [Navitoclax] (partner 0.5 µM) here?
The relative viability was 0.834.

And the relative viability (NCI-H441; first compound 0.1265 µM)?
The relative viability was 0.684.

And the relative viability (NCI-H441; first compound 0.4 µM)?
The relative viability was 0.54.

And the relative viability (NCI-H441; first compound 1.265 µM)?
The relative viability was 0.528.

What about the relative viability (NCI-H441; first compound 4 µM) of the same compound?
The relative viability was 0.408.

And the relative viability (NCI-H1975; first compound 0.04 µM)?
The relative viability was 1.1.

What about the relative viability (NCI-H1975; first compound 0.1265 µM) of the same compound?
The relative viability was 0.715.

What about the relative viability (NCI-H1975; first compound 0.4 µM) of the same compound?
Its relative viability is 0.821.

What about the relative viability (NCI-H1975; first compound 1.265 µM) of the same compound?
Its relative viability is 0.336.

And the relative viability (NCI-H1975; first compound 4 µM)?
Its relative viability is 0.266.

What about the relative viability (HCC-15; first compound 0.04 µM) of the same compound?
The relative viability was 0.692.

And the relative viability (HCC-15; first compound 0.4 µM)?
Its relative viability is 0.532.

And the relative viability (HCC-15; first compound 1.265 µM)?
The relative viability was 0.331.

What about the relative viability (HCC-15; first compound 4 µM) of the same compound?
Its relative viability is 0.299.

And the relative viability (SK-MES-1; first compound 0.04 µM)?
The relative viability was 1.29.

What about the relative viability (SK-MES-1; first compound 0.1265 µM) of the same compound?
Its relative viability is 1.07.

What about the relative viability (SK-MES-1; first compound 0.4 µM) of the same compound?
Its relative viability is 1.12.

What about the relative viability (SK-MES-1; first compound 1.265 µM) of the same compound?
Its relative viability is 0.477.

And the relative viability (SK-MES-1; first compound 4 µM)?
The relative viability was 0.264.

What about the relative viability (NCI-H1792; first compound 0.04 µM) of the same compound?
Its relative viability is 0.656.

And the relative viability (NCI-H1792; first compound 0.4 µM)?
Its relative viability is 0.708.

And the relative viability (NCI-H1792; first compound 1.265 µM)?
The relative viability was 0.622.

And the relative viability (NCI-H1792; first compound 4 µM)?
Its relative viability is 0.31.

And the relative viability (A-427; first compound 0.04 µM)?
Its relative viability is 0.997.

What about the relative viability (A-427; first compound 0.1265 µM) of the same compound?
Its relative viability is 0.974.

What about the relative viability (A-427; first compound 0.4 µM) of the same compound?
Its relative viability is 1.

And the relative viability (A-427; first compound 1.265 µM)?
The relative viability was 0.854.

And the relative viability (A-427; first compound 4 µM)?
The relative viability was 0.784.

And the relative viability (HCC-44; first compound 0.04 µM)?
The relative viability was 1.02.

And the relative viability (HCC-44; first compound 0.1265 µM)?
Its relative viability is 0.802.

And the relative viability (HCC-44; first compound 0.4 µM)?
The relative viability was 0.705.

And the relative viability (HCC-44; first compound 1.265 µM)?
The relative viability was 0.265.

And the relative viability (HCC-44; first compound 4 µM)?
The relative viability was 0.389.

What about the relative viability (NCI-H838; first compound 0.04 µM) of the same compound?
Its relative viability is 1.1.

What about the relative viability (NCI-H838; first compound 0.1265 µM) of the same compound?
Its relative viability is 0.592.

What about the relative viability (NCI-H838; first compound 0.4 µM) of the same compound?
Its relative viability is 0.662.

What about the relative viability (NCI-H838; first compound 1.265 µM) of the same compound?
Its relative viability is 0.355.

And the relative viability (NCI-H838; first compound 4 µM)?
The relative viability was 0.247.

What about the relative viability (NCI-H1650; first compound 0.04 µM) of the same compound?
The relative viability was 1.09.

And the relative viability (NCI-H1650; first compound 0.1265 µM)?
The relative viability was 0.998.

What about the relative viability (NCI-H1650; first compound 0.4 µM) of the same compound?
Its relative viability is 0.655.

What about the relative viability (NCI-H1650; first compound 1.265 µM) of the same compound?
Its relative viability is 0.24.

What about the relative viability (NCI-H1650; first compound 4 µM) of the same compound?
The relative viability was 0.169.

And the relative viability (EKVX; first compound 0.04 µM)?
The relative viability was 0.945.

And the relative viability (EKVX; first compound 0.1265 µM)?
Its relative viability is 0.827.

And the relative viability (EKVX; first compound 0.4 µM)?
Its relative viability is 0.96.

And the relative viability (EKVX; first compound 1.265 µM)?
The relative viability was 0.802.

And the relative viability (EKVX; first compound 4 µM)?
The relative viability was 0.685.

And the relative viability (HCC-827; first compound 0.04 µM)?
The relative viability was 0.95.

And the relative viability (HCC-827; first compound 0.4 µM)?
The relative viability was 1.14.

What about the relative viability (HCC-827; first compound 1.265 µM) of the same compound?
The relative viability was 0.94.

And the relative viability (HCC-827; first compound 4 µM)?
The relative viability was 0.689.

And the relative viability (HARA; first compound 0.04 µM)?
The relative viability was 1.11.

What about the relative viability (HARA; first compound 0.1265 µM) of the same compound?
Its relative viability is 1.

And the relative viability (HARA; first compound 0.4 µM)?
The relative viability was 0.781.

And the relative viability (HARA; first compound 1.265 µM)?
The relative viability was 0.261.

And the relative viability (HARA; first compound 4 µM)?
The relative viability was 0.234.

What about the relative viability (COR-L23; first compound 0.04 µM) of the same compound?
The relative viability was 1.02.

What about the relative viability (COR-L23; first compound 0.1265 µM) of the same compound?
Its relative viability is 0.763.

And the relative viability (COR-L23; first compound 0.4 µM)?
Its relative viability is 0.858.

And the relative viability (COR-L23; first compound 1.265 µM)?
Its relative viability is 0.357.

What about the relative viability (COR-L23; first compound 4 µM) of the same compound?
The relative viability was 0.155.

And the relative viability (201T; first compound 0.04 µM)?
Its relative viability is 1.23.

And the relative viability (201T; first compound 0.1265 µM)?
Its relative viability is 0.977.

And the relative viability (201T; first compound 0.4 µM)?
The relative viability was 1.15.

What about the relative viability (201T; first compound 1.265 µM) of the same compound?
Its relative viability is 0.842.

And the relative viability (201T; first compound 4 µM)?
Its relative viability is 0.618.

What about the relative viability (NCI-H596; first compound 0.04 µM) of the same compound?
Its relative viability is 1.17.

What about the relative viability (NCI-H596; first compound 0.1265 µM) of the same compound?
Its relative viability is 1.03.

What about the relative viability (NCI-H596; first compound 0.4 µM) of the same compound?
The relative viability was 0.421.

What about the relative viability (NCI-H596; first compound 1.265 µM) of the same compound?
The relative viability was 0.236.

And the relative viability (NCI-H596; first compound 4 µM)?
Its relative viability is 0.23.

And the relative viability (NCI-H23; first compound 0.04 µM)?
The relative viability was 0.687.

What about the relative viability (NCI-H23; first compound 0.1265 µM) of the same compound?
Its relative viability is 0.781.

What about the relative viability (NCI-H23; first compound 0.4 µM) of the same compound?
Its relative viability is 0.62.

And the relative viability (NCI-H23; first compound 1.265 µM)?
Its relative viability is 0.395.

What about the relative viability (NCI-H23; first compound 4 µM) of the same compound?
Its relative viability is 0.144.

What about the relative viability (NCI-H1437; first compound 0.04 µM) of the same compound?
The relative viability was 1.03.

And the relative viability (NCI-H1437; first compound 0.1265 µM)?
Its relative viability is 0.798.

What about the relative viability (NCI-H1437; first compound 0.4 µM) of the same compound?
Its relative viability is 0.693.

And the relative viability (NCI-H1437; first compound 1.265 µM)?
The relative viability was 0.325.

What about the relative viability (NCI-H1437; first compound 4 µM) of the same compound?
Its relative viability is 0.306.

What about the relative viability (BEN; first compound 0.04 µM) of the same compound?
The relative viability was 0.0812.

And the relative viability (BEN; first compound 0.1265 µM)?
The relative viability was 0.082.

And the relative viability (BEN; first compound 0.4 µM)?
The relative viability was 0.0765.

And the relative viability (BEN; first compound 1.265 µM)?
The relative viability was 0.0678.

What about the relative viability (BEN; first compound 4 µM) of the same compound?
The relative viability was 0.0582.
